Consider 2 molecules from US6635802B1, “Nuclear transfer using cells cultured in serum starvation media containing apoptosis inhibitors” (The Texas A&M University System, priority 2000, dated 2003).

The subject of assay [1] is porcine PGCs. In words: In vitro culture of porcine PGCs on STO feeder cells with apoptosis inhibitors; AP-stained colonies counted. The format is cell-based. The following applies: for Effect of timing of exposure on number of colonies, in words: all 8 days vs first 4 days vs last 4 days. The text has this: Porcine fetuses were collected from hysterectomized uteri of four-way crossbred gilts (DeKalb, Ill.) between day 25 and 30 of pregnancy (estrus=day 0). Fetuses were washed in phosphate buffered saline supplemented with BSA (0.4%, Sigma St. Louis, Mo.) and penicillin/streptomycin (1%, Gibco BRL, Rockville, Md.) (PBS/BSA/PS). Urogenital ridges, appeared as longitudinal protrusions along the medial mesonephric surface, were isolated and washed in PBS/BSA/PS followed by several washes in PES medium before PGC collection. The PES medium was comprised of 50:50 mixture of Dulbecco's modified Eagle's medium (DMEM) and Ham's F10 medium supplemented with 15% fetal bovine serum (FBS), L-glutamine (2 mM), β-mercaptoethanol (0.1 mM), MEM non-essential amino acids (1%) and penicillin/streptomycin (1%). All media and supplements were purchased from Gibco BRL.
PGCs were isolated by incubation in 0.25% trypsin/1 mM EDTA solution (Gibco BRL) followed by gentle pipetting or by mechanical dissociation of ridges into small fragments followed by gentle pipetting. After tissue disruption, cells were centrifuged for 5 minutes at 250 rpm to remove tissue debris and clumps. The supernatant containing most the single cells was collected and centrifuged at 1000 rpm for 10 minutes.
PGCs were resuspended with PES medium containing cytokines, such as soluble recombinant human stem cell factor (SCF; 40 ng/ml), human basic fibroblast growth factor (bFGF; 20 ng/ml), and human leukemia inhibitory factor (LIF; 20 ng/ml). All cytokines were obtained from R&D Systems (Minneapolis, Minn.). Cell suspensions were plated on irradiated mouse STO feeder cells (3×10^6 cells per 35 mm well), prepared as previously described (Piedrahita et al., 1998) and cultured in humidified environment of 5% CO2 in air, 38° C. PGC-derived colonies with ES-like morphology after 7-10 days of culture are passaged to fresh feeders for establishment of cell lines. PGC-derived colonies were dissociated with 0.25% trypsin/1 mM EDTA (Gibco BRL) for 10 minutes. […] To identify PGC-derived cells and the state of differentiation were determined by morphology and by expression of alkaline phosphatase (AP).
AP activity was determined as described previously (Moore and Piedrahita, 1997). Briefly, culture plates were rinsed twice in PBS and fixed in 4% formaldehyde in PBS for 15 minutes at room temperature. Fixed cells were washed twice with PBS and stained in naphtol AS-MX phosphate (200 μg/ml; Sigma) and Fast Red TR salt (1 mg/ml; Sigma) in 100 mM Tris buffer, pH 8.2 for 30 minutes at room temperature. Staining was terminated by washing cultures in PBS. Specificity of AP activity was determined by staining in the presence of the AP inhibitor, tetramisole (500 μM; Sigma). Mouse ES cells also were stained as control for AP activity.
To determine the effect of apoptosis inhibitors on survival of porcine PGCs in vitro, freshly isolated PGCs were cultured as described above with or without apoptosis inhibitors, α2-macroglobulin (MAC: broad range protease inhibitor, 1.4 pM) and N-acetylcysteine (NAC: antioxidant, 1 mM). After 7-10 days of culture, colonies were stained for AP activity and counted. Studies were performed at least three replicates. The data were normalized to the treatment with no inhibitors added (control) and tested for homogeneity of variance and analyzed by ANOVA. Mean separation is accomplished by Fisher's protected LSD using software SuperANOVA (Abacus Concepts).
Dose titration of MAC (0.35, 0.7, 1.4, and 2.8 pM) and NAC (0.25, 0.5, 1.0, and 2.0 mM), to determine the optimal concentration of inhibitors, were performed.

Assay [2] relates to Porcine embryonic fibroblast (PEF). In words: Cell cycle distribution (propidium iodide flow cytometry) of serum starved porcine embryonic fibroblasts. Type of assay: cell-based. To be noted: for Proportion of cells going into G0, in words: addition during the starvation period; for G0/G1 (%) / G2/M (%) / S (%): serum starvation 5 days, MAC 0.7 pM, NAC 1 mM, GSH 2 mM. From the text:
Porcine embryonic fibroblast (PEF) were isolated from day 25-28 fetuses according to the methods previously described (Hogan et al., 1994). Briefly, porcine fetuses of day 25-30 (day 0=estrus) were removed from the uterus and rinsed with PBS+penicillin/streptomycin solution (PBS/PS). Head, limbs and internal organs were removed, and the carcasses were minced with razor blades or ground using a syringe head until they were the consistency of sludge. Then these were trypsinized 2-3 times using 0.25% trypsin+EDTA for 20 minutes. The supernatant fraction was removed and centrifuged to collect the cells. The cells were plated using DMEM+10% fetal bovine serum (FBS) and cultured up to 80-90% confluency before further passage.
Bovine embryonic fibroblasts (BEF) were isolated from the fetus with 3-5 cm crown-rump length. After two or three passages, cells were plated one million cells per plate (100 mm) with growth medium (DMEM) with 2 mM L-glutamine, 0.1 mM β-mercaptoethanol and 10% FBS. After 24 hours, cells were washed with PBS 3-5 times and then serum starvation medium with 0.5% FBS was added. In addition, cells were treated with serum starvation medium containing apoptosis inhibitors such as a2-macroglobulin (0.7 pM), N-acetylcysteine (1 mM) and glutathione (2 mM). Cells were treated with serum starvation with or without apoptosis inhibitors for 5 or 10 days. Then cells were trypsinized and counted.
Cells (1×10^6) were washed in 0.15 M NaCI, fixed in 70% ethanol, and stored at −20° C. overnight or until ready to be analyzed. For analysis, cells were centrifuged, rinsed with PBS, resuspended in 500 μl of a 0.05 mg/ml propidium iodide/0.1% Triton X-100/0.2 mg/ml RNase A solution, and incubated for a minimum of 30 minutes at room temperature in the dark. Cells were analyzed by flow cytometry to determine DNA content. Modfit LT™ (Verity Software House, Topsham, Me.) was used to model the cell cycle distribution within each sample.

Take `CC(=O)N[C@@H](CS)C(=O)O` [NAC, N-acetylcysteine]: the “Normalized # of Colonies + SE” value in assay [1] (0.25 mM NAC, normalized to control, Table 2 dose response) is listed as 1.23 ± 0.14; in assay [1] (0.5 mM NAC, normalized to control, Table 2 dose response) it was 1.75 ± 0.13; in assay [1] (1.0 mM NAC, normalized to control, Table 2 dose response), 2.07 ± 0.19; in assay [1] (2.0 mM NAC, normalized to control, Table 2 dose response), 2.21 ± 0.04; in assay [1] (NAC (1.0 mM) 1-4 days (FH), Table 5 timing study) it was 2.86 ± 0.55; in assay [1] (NAC (1.0 mM) 5-8 days (LH), Table 5 timing study) it was 1.01 ± 0.035. Also, the “Normalized # of Colonies + SE” value is on record as 2.64 ± 0.49 in assay [1] (NAC (1.0 mM) all 8 days, Table 5 timing study) and 1.93 ± 0.10 in assay [1] (Table 7 antioxidants: NAC 1.0 mM, BHA 0.1 mM, BPN 1.0 mM, CIM 2.0 mM, normalized to control). Further, the “Effect of timing of exposure on number of colonies, in words” value in assay [1] is listed as “Addition at later days has little effect”. The “Concentration of maximal response (number of colonies) over the doses studied” value in assay [1] (doses 0.25-2.0 mM studied) came to 2.0 mM. The “Proportion of cells going into G0, in words” value in assay [2] was “did not affect the proportion of cells going into G0”. Moreover, the “G0/G1 (%)” value in assay [2] is recorded as 95%. In addition, the “G2/M (%)” value in assay [2] is listed as 3%. The “S (%)” value in assay [2] was 2%.

B1: α2-macroglobulin (protein, UniProt P01023 24-1474, looked up)
Alpha-2-macroglobulin: SVSGKPQYMVLVPSLLHTETTEKGCVLLSYLNETVTVSASLESVRGNRSLFTDLEAENDVLHCVAFAVPKSSSNEEVMFLTVQVKGPTQEFKKRTTVMVKNEDSLVFVQTDKSIYKPGQTVKFRVVSMDENFHPLNELIPLVYIQDPKGNRIAQWQSFQLEGGLKQFSFPLSSEPFQGSYKVVVQKKSGGRTEHPFTVEEFVLPKFEVQVTVPKIITILEEEMNVSVCGLYTYGKPVPGHVTVSICRKYSDASDCHGEDSQAFCEKFSGQLNSHGCFYQQVKTKVFQLKRKEYEMKLHTEAQIQEEGTVVELTGRQSSEITRTITKLSFVKVDSHFRQGIPFFGQVRLVDGKGVPIPNKVIFIRGNEANYYSNATTDEHGLVQFSINTTNVMGTSLTVRVNYKDRSPCYGYQWVSEEHEEAHHTAYLVFSPSKSFVHLEPMSHELPCGHTQTVQAHYILNGGTLLGLKKLSFYYLIMAKGGIVRTGTHGLLVKQEDMKGHFSISIPVKSDIAPVARLLIYAVLPTGDVIGDSAKYDVENCLANKVDLSFSPSQSLPASHAHLRVTAAPQSVCALRAVDQSVLLMKPDAELSASSVYNLLPEKDLTGFPGPLNDQDNEDCINRHNVYINGITYTPVSSTNEKDMYSFLEDMGLKAFTNSKIRKPKMCPQLQQYEMHGPEGLRVGFYESDVMGRGHARLVHVEEPHTETVRKYFPETWIWDLVVVNSAGVAEVGVTVPDTITEWKAGAFCLSEDAGLGISSTASLRAFQPFFVELTMPYSVIRGEAFTLKATVLNYLPKCIRVSVQLEASPAFLAVPVEKEQAPHCICANGRQTVSWAVTPKSLGNVNFTVSAEALESQELCGTEVPSVPEHGRKDTVIKPLLVEPEGLEKETTFNSLLCPSGGEVSEELSLKLPPNVVEESARASVSVLGDILGSAMQNTQNLLQMPYGCGEQNMVLFAPNIYVLDYLNETQQLTPEIKSKAIGYLNTGYQRQLNYKHYDGSYSTFGERYGRNQGNTWLTAFVLKTFAQARAYIFIDEAHITQALIWLSQRQKDNGCFRSSGSLLNNAIKGGVEDEVTLSAYITIALLEIPLTVTHPVVRNALFCLESAWKTAQEGDHGSHVYTKALLAYAFALAGNQDKRKEVLKSLNEEAVKKDNSVHWERPQKPKAPVGHFYEPQAPSAEVEMTSYVLLAYLTAQPAPTSEDLTSATNIVKWITKQQNAQGGFSSTQDTVVALHALSKYGAATFTRTGKAAQVTIQSSGTFSSKFQVDNNNRLLLQQVSLPELPGEYSMKVTGEGCVYLQTSLKYNILPEKEEFPFALGVQTLPQTCDEPKAHTSFQISLSVSYTGSRSASNMAIVDVKMVSGFIPLKPTVKMLERSNHVSRTEVSSNHVLIYLDKVSNQTLSLFFTVLQDVPVRDLKPAIVKVYDYYETDEFAIAEYNAPCSKDLGNA
Regarding B1, the “Normalized # of Colonies + SE” value in assay [1] (0.35 pM MAC, normalized to control without inhibitor, Table 1 dose response) was 1.43 ± 0.03; in assay [1] (0.7 pM MAC, normalized to control, Table 1 dose response), 1.90 ± 0.08; in assay [1] (1.40 pM MAC, normalized to control, Table 1 dose response), 1.50 ± 0.01; in assay [1] (2.8 pM MAC, normalized to control, Table 1 dose response), 1.16 ± 0.06; in assay [1] (MAC (0.7 pM) all 8 days, Table 4 timing study), 1.64 ± 0.08. Also, the “Number of first passage colonies, in words” value in assay [1] (added to the culture media) is on record as “increased the number of first passage colonies”. In addition, the “Effect of timing of exposure on number of colonies, in words” value in assay [1] is given as “maximal effects result when MAC is present throughout the incubation period”. Also, in assay [1] (doses 0.35-2.8 pM studied), the “Concentration of maximal response (number of colonies)” value came to 0.7 pM. Moreover, the “Effect upon second passage, in words” value in assay [1] (independent of previous culture in the presence of the molecule) is recorded as “protective effect”. Besides, the “Effect on the number of PGCs, in words” value in assay [1] (single concentrations of Tables 6 and 7) is “induced the most, and significantly, positive effect”. Moreover, in assay [2], the “Proportion of cells going into G0, in words” value is reported as “did not affect the proportion of cells going into G0”. Besides, the “G0/G1 (%)” value in assay [2] was found to be 95%. Further, the “G2/M (%)” value in assay [2] worked out at 4%. Also, in assay [2], the “S (%)” value was determined as 1%.
